The values that follow come from ChEMBL document CHEMBL5120922, “Discovery, Optimization, and Evaluation of Potent and Selective PI3Kδ-γ Dual Inhibitors for the Treatment of B-cell Malignancies” (J Med Chem, 2022).

Assay [1] has as its system DOHH-2. Description: Antiproliferative activity against human DOHH-2 cells assessed as cell growth inhibition measured after 72 hrs by MTT assay. Format: functional, cell-based. As to conditions: DOHH-2, 72 h.
For assay [2], the system named is SU-DHL-6. Put plainly: Antiproliferative activity against human SU-DHL-6 cells assessed as cell growth inhibition measured after 72 hrs by MTT assay. Format: functional, cell-based. As to conditions: SU-DHL-6, 72 h.
Assay [3] has as its system SUD4. Description: Antiproliferative activity against human SU-DHL-4 cells assessed as cell growth inhibition measured after 72 hrs by MTT assay. The assay is classed as functional, cell-based. As to conditions: SU-DHL-4, 72 h. (Formazan colour is commonly taken as a measure of viable cells.)
Assay [4] deals with Phosphatidylinositol 4,5-bisphosphate 3-kinase catalytic subunit gamma isoform (Homo sapiens, UniProt P48736). Description: Inhibition of N-terminal His6-tagged recombinant full length human PI3Kgamma expressed in baculovirus infected Sf21 insect cells incubated for 30 mins by HTRF assay. In general terms: TR-FRET usually uses a lanthanide donor and a delayed reading to cut background.
Sequence of Phosphatidylinositol 4,5-bisphosphate 3-kinase catalytic subunit gamma isoform (P48736 whole entry, canonical isoform): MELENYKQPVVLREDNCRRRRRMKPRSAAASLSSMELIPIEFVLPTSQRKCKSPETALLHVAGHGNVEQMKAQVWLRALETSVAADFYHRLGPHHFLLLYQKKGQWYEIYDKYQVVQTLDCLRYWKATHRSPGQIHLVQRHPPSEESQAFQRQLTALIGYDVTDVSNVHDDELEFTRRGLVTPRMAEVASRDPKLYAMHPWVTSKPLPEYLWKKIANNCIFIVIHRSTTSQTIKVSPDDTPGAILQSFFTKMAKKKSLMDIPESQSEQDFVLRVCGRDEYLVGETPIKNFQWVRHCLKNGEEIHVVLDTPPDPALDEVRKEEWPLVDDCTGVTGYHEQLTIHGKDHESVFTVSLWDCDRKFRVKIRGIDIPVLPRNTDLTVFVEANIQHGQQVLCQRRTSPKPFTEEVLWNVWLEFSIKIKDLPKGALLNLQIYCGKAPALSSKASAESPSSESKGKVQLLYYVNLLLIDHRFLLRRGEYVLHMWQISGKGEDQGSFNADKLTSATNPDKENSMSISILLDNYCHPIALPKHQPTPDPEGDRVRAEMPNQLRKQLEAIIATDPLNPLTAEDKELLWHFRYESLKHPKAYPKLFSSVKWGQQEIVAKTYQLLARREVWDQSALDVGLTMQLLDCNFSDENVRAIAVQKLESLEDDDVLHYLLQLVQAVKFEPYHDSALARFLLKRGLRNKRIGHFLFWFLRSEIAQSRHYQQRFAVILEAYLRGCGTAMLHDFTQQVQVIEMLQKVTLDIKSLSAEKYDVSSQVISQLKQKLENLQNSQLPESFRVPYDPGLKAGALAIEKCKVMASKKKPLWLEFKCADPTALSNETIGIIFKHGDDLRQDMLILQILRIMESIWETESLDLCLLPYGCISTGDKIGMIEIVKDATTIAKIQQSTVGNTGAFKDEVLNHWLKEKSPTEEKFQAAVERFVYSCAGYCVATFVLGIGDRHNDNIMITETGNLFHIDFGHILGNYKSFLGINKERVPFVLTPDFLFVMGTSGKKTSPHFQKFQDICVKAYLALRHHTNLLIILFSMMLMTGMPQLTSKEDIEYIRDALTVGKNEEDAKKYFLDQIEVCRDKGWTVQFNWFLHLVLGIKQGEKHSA

Assay [5] concerns the target T1, Phosphatidylinositol 4,5-bisphosphate 3-kinase catalytic subunit delta isoform (Homo sapiens, UniProt O00329).
T1 sequence (O00329 whole entry): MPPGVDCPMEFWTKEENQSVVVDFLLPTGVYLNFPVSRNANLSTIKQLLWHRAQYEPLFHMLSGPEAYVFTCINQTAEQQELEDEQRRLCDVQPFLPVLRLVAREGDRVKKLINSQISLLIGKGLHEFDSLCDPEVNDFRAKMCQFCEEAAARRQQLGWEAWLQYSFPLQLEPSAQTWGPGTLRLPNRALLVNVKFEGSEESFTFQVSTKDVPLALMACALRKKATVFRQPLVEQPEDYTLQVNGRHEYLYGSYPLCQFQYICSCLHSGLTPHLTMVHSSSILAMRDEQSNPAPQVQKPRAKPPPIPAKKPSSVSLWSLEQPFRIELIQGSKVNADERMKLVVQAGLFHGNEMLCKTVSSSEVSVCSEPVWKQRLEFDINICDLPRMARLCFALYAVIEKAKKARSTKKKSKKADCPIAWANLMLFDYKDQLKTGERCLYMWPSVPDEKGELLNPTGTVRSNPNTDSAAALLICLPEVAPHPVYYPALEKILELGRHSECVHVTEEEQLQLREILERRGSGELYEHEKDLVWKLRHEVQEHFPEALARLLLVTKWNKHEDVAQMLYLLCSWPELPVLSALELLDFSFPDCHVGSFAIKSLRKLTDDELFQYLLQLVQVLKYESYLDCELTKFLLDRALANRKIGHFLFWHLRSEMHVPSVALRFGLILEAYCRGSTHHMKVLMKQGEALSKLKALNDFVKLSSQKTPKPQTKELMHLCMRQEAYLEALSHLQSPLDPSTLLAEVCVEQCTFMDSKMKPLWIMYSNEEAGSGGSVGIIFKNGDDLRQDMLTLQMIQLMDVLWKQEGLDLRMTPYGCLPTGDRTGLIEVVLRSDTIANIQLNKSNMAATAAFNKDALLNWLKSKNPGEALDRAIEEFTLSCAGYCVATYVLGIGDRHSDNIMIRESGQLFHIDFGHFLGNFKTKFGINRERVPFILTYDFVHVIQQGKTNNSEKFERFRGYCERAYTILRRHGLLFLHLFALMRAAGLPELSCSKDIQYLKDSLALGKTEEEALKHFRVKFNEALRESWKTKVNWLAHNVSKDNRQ
Put plainly: Inhibition of N-terminal His6-tagged recombinant full length human PI3Kdelta expressed in baculovirus infected Sf21 insect cells incubated for 30 mins by HTRF assay.

Assay [6] concerns the target Phosphatidylinositol 4,5-bisphosphate 3-kinase catalytic subunit alpha isoform (Homo sapiens, UniProt P42336). Put plainly: Inhibition of N-terminal His6-tagged recombinant full length human PI3Kalpha expressed in baculovirus infected Sf21 insect cells incubated for 30 mins by HTRF assay.
The target of assay [7] is Phosphatidylinositol 4,5-bisphosphate 3-kinase catalytic subunit beta isoform (Homo sapiens, UniProt P42338). Put plainly: Inhibition of N-terminal His6-tagged recombinant full length human PI3Kbeta expressed in baculovirus infected Sf21 insect cells incubated for 30 mins by HTRF assay.
Sequence of Phosphatidylinositol 4,5-bisphosphate 3-kinase catalytic subunit beta isoform (P42338 whole entry, canonical isoform): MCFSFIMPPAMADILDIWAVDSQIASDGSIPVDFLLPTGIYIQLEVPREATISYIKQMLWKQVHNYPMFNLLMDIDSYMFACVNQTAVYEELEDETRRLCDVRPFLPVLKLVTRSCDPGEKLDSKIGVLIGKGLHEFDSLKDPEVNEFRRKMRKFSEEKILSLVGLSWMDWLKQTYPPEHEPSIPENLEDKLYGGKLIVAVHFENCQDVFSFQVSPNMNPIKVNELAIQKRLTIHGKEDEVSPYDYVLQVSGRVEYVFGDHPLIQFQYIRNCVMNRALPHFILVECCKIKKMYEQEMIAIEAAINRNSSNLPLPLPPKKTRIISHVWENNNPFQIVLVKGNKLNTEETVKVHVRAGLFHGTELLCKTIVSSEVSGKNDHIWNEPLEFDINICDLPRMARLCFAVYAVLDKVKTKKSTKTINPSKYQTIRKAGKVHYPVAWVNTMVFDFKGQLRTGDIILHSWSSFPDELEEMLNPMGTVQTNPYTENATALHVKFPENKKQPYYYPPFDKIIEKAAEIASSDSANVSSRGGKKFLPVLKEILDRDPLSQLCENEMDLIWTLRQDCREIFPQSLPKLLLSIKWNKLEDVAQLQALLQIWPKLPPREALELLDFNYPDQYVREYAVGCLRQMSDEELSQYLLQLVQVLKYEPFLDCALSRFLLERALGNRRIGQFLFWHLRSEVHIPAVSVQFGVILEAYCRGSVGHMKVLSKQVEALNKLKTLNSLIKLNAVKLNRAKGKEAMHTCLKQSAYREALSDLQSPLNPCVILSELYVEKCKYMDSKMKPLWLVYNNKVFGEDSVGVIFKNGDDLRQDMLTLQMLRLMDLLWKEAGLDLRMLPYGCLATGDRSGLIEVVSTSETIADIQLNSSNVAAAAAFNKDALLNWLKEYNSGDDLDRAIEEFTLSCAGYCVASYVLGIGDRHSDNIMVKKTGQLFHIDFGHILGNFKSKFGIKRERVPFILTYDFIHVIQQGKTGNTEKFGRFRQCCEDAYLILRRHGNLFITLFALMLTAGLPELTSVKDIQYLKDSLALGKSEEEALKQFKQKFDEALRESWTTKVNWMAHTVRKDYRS
The subject of assay [8] is SU-DHL-6. Put plainly: Induction of cell cycle arrest in human SU-DHL-6 cells assessed as accumulation of cells at G0/G1 phase at 0.5 uM incubated for 24 hrs by PI staining based FACScan flow cytometry analysis (reference value: 55.61 %). Format: functional.
For assay [9], the system named is SU-DHL-6. Put plainly: Induction of cell cycle arrest in human SU-DHL-6 cells assessed as accumulation of cells at S phase at 0.5 uM incubated for 24 hrs by PI staining based FACScan flow cytometry analysis (reference value: 24.18 %). Format: functional. For orientation: In flow cytometry, cells or beads pass a laser one at a time.
The test system of assay [10] is SU-DHL-6. Description: Induction of cell cycle arrest in human SU-DHL-6 cells assessed as accumulation of cells at G2/M phase at 0.5 uM incubated for 24 hrs by PI staining based FACScan flow cytometry analysis (reference value: 20.21 %). The assay is classed as functional.
In assay [11] the test system is DOHH-2. Put plainly: Induction of cell cycle arrest in human DOHH-2 cells assessed as accumulation of cells at G0/G1 phase at 1 uM incubated for 24 hrs by PI staining based flow cytometry analysis (reference value: 23.47 %). The assay is classed as functional.
The subject of assay [12] is DOHH-2. Put plainly: Induction of cell cycle arrest in human DOHH-2 cells assessed as accumulation of cells at S phase at 1 uM incubated for 24 hrs by PI staining based flow cytometry analysis (reference value: 55.11 %). The assay is classed as functional.
The test system of assay [13] is DOHH-2. Description: Induction of cell cycle arrest in human DOHH-2 cells assessed as accumulation of cells at G2/M phase at 1 uM incubated for 24 hrs by PI staining based flow cytometry analysis (reference value: 21.42 %). Format: functional.
The test system of assay [14] is SU-DHL-6. Description: Induction of apoptosis in human SU-DHL-6 cells assessed as viable cells at 1.5 uM incubated for 48 hrs by annexin V-FITC and PI staining based flow cytometry analysis (reference value: 87.0 %). Format: functional. As to conditions: read-out: Activity.
For assay [15], the system named is SU-DHL-6. Description: Induction of apoptosis in human SU-DHL-6 cells assessed as early apoptotic cells at 1.5 uM incubated for 48 hrs by annexin V-FITC and PI staining based flow cytometry analysis (reference value: 8.81 %). The assay is classed as functional.
The subject of assay [16] is SU-DHL-6. Description: Induction of apoptosis in human SU-DHL-6 cells assessed as late apoptotic cells at 1.5 uM incubated for 48 hrs by annexin V-FITC and PI staining based flow cytometry analysis (reference value: 3.88 %). The assay is classed as functional.
Assay [17] has as its system SU-DHL-6. Description: Induction of apoptosis in human SU-DHL-6 cells assessed as necrotic cells at 1.5 uM incubated for 48 hrs by annexin V-FITC and PI staining based flow cytometry analysis (reference value: 0.32%). Format: functional.
Assay [18] has as its system DOHH-2. Description: Induction of apoptosis in human DOHH-2 cells assessed as viable cells at 1 uM incubated for 48 hrs by annexin V-FITC and PI staining based flow cytometry analysis (reference value: 95.4 %). The assay is classed as functional. As to conditions: read-out: Activity.
Assay [19] relates to DOHH-2. Put plainly: Induction of apoptosis in human DOHH-2 cells assessed as early apoptotic cells at 1 uM incubated for 48 hrs by annexin V-FITC and PI staining based flow cytometry analysis (reference value: 2.09 %). Format: functional.
In assay [20] the test system is DOHH-2. Description: Induction of apoptosis in human DOHH-2 cells assessed as late apoptotic cells at 1 uM incubated for 48 hrs by annexin V-FITC and PI staining based flow cytometry analysis (reference value: 2.20 %). The assay is classed as functional.
Assay [21] has as its system DOHH-2. Put plainly: Induction of apoptosis in human DOHH-2 cells assessed as necrotic cells at 1 uM incubated for 48 hrs by annexin V-FITC and PI staining based flow cytometry analysis (Rvb =0.29 %). The assay is classed as functional.

Sequence of Phosphatidylinositol 4,5-bisphosphate 3-kinase catalytic subunit alpha isoform (P42336 whole entry, canonical isoform): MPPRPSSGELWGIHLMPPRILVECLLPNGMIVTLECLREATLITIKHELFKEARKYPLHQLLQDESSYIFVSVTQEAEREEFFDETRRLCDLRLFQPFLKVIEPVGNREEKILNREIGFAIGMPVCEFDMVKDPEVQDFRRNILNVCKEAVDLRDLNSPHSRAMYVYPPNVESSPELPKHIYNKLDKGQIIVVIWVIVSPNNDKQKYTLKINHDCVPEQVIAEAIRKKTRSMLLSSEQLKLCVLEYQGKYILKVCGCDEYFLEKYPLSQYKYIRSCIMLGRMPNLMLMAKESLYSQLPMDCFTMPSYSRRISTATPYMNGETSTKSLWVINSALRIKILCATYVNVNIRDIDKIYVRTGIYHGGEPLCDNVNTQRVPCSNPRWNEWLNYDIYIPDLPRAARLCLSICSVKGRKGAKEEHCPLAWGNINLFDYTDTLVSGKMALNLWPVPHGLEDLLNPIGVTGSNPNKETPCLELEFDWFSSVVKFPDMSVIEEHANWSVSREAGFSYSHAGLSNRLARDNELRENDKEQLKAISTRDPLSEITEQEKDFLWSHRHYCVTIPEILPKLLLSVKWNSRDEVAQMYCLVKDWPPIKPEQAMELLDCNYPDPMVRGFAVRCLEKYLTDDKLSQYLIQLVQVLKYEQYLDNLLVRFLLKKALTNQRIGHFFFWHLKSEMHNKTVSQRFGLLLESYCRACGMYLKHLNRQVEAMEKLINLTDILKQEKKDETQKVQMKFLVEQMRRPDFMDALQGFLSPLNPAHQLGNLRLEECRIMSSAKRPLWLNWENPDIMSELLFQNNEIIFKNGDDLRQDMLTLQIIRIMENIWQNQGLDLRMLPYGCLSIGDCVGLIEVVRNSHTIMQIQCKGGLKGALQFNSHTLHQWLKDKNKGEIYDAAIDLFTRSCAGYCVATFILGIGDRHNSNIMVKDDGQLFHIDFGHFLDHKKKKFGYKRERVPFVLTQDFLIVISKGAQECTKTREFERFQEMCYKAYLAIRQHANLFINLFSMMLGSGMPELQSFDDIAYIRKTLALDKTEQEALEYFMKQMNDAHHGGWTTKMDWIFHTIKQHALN

Consider `COc1cncc(-c2cccc3nc([C@@H]4CC[C@H](C)N4c4nc(N)nc(N)c4C#N)n(-c4cccc(F)c4)c(=O)c23)c1`, for which the IC50 (as a rule, the point on the concentration scale where inhibition reaches its midpoint) in [1] came to 520 nM; in [2], 110 nM; in assay [3], 430 nM; in [4] it was 9000 nM; in assay [5] it was 600 nM; in assay [6] it was 22000 nM. Moreover, the IC50 in assay [7] was 429000 nM.

As to `C[C@H]1CC[C@@H](c2nc3c(F)cc(F)cc3c(=O)n2-c2cccnc2)N1c1nc(N)nc(N)c1C#N`, the half-inhibitory concentration (IC50) was 470 nM in assay [1]; 180 nM in [2]; 160 nM in assay [3]; 30000 nM in [4]; 3000 nM in assay [5]; 374000 nM in assay [6]. Besides, the IC50 in assay [7] worked out at 445000 nM.

Turning to `C=CC(=O)N1CCC[C@@H](n2nc(-c3ccc(Oc4ccccc4)cc3)c3c(N)ncnc32)C1` [IBRUTINIB], the Activity in assay [8] was determined as 58.11%; in [9], 29.85%; in assay [10] it was 12.04%; in assay [11] it was 46.69%; in assay [12], 40.49%; in assay [13], 13.92%. Moreover, the Activity in assay [15] came to 9.9%; in [16], 4.62%; in [17] it was 0.15%; in assay [19], 8.69%; in assay [20] it was 10.7%; in assay [21] it was 0.7%. Moreover, the viability at 1.5 µM in assay [14] was found to be 86.1%. In addition, the viability at 1 µM in assay [18] is 79.9%.
